According to PubChem BioAssay AID248 (DTP/NCI, 2004):
Several values for one entry are separate records, joined by “and”; a condition that tells them apart may be missing. Identical values can stand only once. Toxic doses and inconclusive results are not listed. No stated cut-off is given here; in the data, active means T/C of 150% or more; inactive means T/C below 125%.

Tested on: L1210 leukemia ip in BDF1 mice, survival T/C
Experiment: NCI In Vivo Anticancer Drug Screen. Data for tumor model L1210 Leukemia (intraperitoneal) in B6D2F1 (BDF1) mice
Details: endpoint: mean survival time, higher = longer survival
Outline: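 Transplantable tumor model; survival measured in treated vs vehicle control mice. Value = treated/control.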

[1] = dose: 100.0 mg/kg/injection, schedule: Q01DX001 (ip), vehicle: saline
[2] = dose: 200.0 mg/kg/injection, schedule: Q01DX001 (ip), vehicle: saline
[3] = dose: 400.0 mg/kg/injection, schedule: Q01DX001 (ip), vehicle: saline
[4] = dose: 100.0 mg/kg/injection, schedule: Q04DX003 (ip), vehicle: Klucel (hydroxypropylcellulose) (HPC)
[5] = dose: 200.0 mg/kg/injection, schedule: Q04DX003 (ip), vehicle: Klucel (hydroxypropylcellulose) (HPC)
[6] = dose: 50.0 mg/kg/injection, schedule: Q04DX002 (ip), vehicle: Klucel (hydroxypropylcellulose) (HPC)
[7] = dose: 100.0 mg/kg/injection, schedule: Q04DX002 (ip), vehicle: Klucel (hydroxypropylcellulose) (HPC)
[8] = dose: 12.5 mg/kg/injection, schedule: Q01DX009 (ip), vehicle: saline
[9] = dose: 25.0 mg/kg/injection, schedule: Q01DX009 (ip), vehicle: saline
[10] = dose: 12.5 mg/kg/injection, schedule: Q04DX003 (ip), vehicle: saline
[11] = dose: 25.0 mg/kg/injection, schedule: Q04DX003 (ip), vehicle: saline
[12] = dose: 75.0 mg/kg/injection, schedule: Q01DX001 (ip), vehicle: saline
[13] = dose: 150.0 mg/kg/injection, schedule: Q01DX001 (ip), vehicle: saline
[14] = dose: 50.0 mg/kg/injection, schedule: Q01DX001 (ip), vehicle: saline
[15] = dose: 200.0 mg/kg/injection, schedule: Q04DX002 (ip), vehicle: Klucel (hydroxypropylcellulose) (HPC)
[16] = dose: 400.0 mg/kg/injection, schedule: Q04DX002 (ip), vehicle: Klucel (hydroxypropylcellulose) (HPC)

Measured: T/C

[Cl][Hg][Cl].c1ccc(N=P(c2ccccc2)(c2ccccc2)c2ccccc2)cc1
inactive: dose: 9.38 mg/kg/injection, schedule: Q01DX001 (ip), vehicle: other 96 % of control | dose: 18.75 mg/kg/injection, schedule: Q01DX001 (ip), vehicle: other 102 % of control

COc1cc([N+](=O)[O-])c(O)cc1O
inactive: dose: 100.0 mg/kg/injection, schedule: Q04DX003 (ip), vehicle: saline 101 % of control | dose: 200.0 mg/kg/injection, schedule: Q04DX003 (ip), vehicle: saline 100 % of control | dose: 400.0 mg/kg/injection, schedule: Q04DX003 (ip), vehicle: saline 96 % of control

Oc1ccc(-c2nc3ccccc3nc2-c2ccc(O)cc2O)c(O)c1
inactive: [1] 96 % of control | [2] 93 % of control | [3] 96 % of control

N/C(=C\C(=O)c1ccccc1)C(=O)c1ccccc1
inactive: [4] 103 % of control | [5] 108 % of control

CN(C)c1ccc(/C=C(/NC(=O)c2ccccc2)C(N)=O)cc1
inactive: [4] 94 % of control | [5] 96 % of control | dose: 400.0 mg/kg/injection, schedule: Q04DX003 (ip), vehicle: Klucel (hydroxypropylcellulose) (HPC) 94 % of control

IC#Cc1ccccc1
inactive: dose: 100.0 mg/kg/injection, schedule: Q01DX001 (ip), vehicle: saline with Tween-80 112 % of control | dose: 200.0 mg/kg/injection, schedule: Q01DX001 (ip), vehicle: saline with Tween-80 105 % of control | dose: 400.0 mg/kg/injection, schedule: Q01DX001 (ip), vehicle: saline with Tween-80 105 % of control

NC(N)=S
inactive: dose: 100.0 mg/kg/injection, schedule: Q01DX009 (ip), vehicle: saline 103 % of control | dose: 100.0 mg/kg/injection, schedule: Q01DX015 (oral), vehicle: saline 97 % of control and 121 % of control | dose: 100.0 mg/kg/injection, schedule: Q04DX002 (ip), vehicle: saline 100 % of control | dose: 200.0 mg/kg/injection, schedule: Q01DX009 (ip), vehicle: saline 101 % of control | dose: 200.0 mg/kg/injection, schedule: Q01DX015 (oral), vehicle: saline 100 % of control and 121 % of control | dose: 200.0 mg/kg/injection, schedule: Q04DX002 (ip), vehicle: saline 113 % of control | dose: 400.0 mg/kg/injection, schedule: Q01DX009 (ip), vehicle: saline 103 % of control | dose: 400.0 mg/kg/injection, schedule: Q01DX015 (oral), vehicle: saline 122 % of control | dose: 400.0 mg/kg/injection, schedule: Q04DX002 (ip), vehicle: saline 95 % of control

Cc1no[n+]([O-])c1-c1nc(SCC(=O)NN)n[nH]1
inactive: dose: 25.0 mg/kg/injection, schedule: Q04DX002 (ip), vehicle: Klucel (hydroxypropylcellulose) (HPC) 91 % of control | [6] 95 % of control | [7] 102 % of control

C=C(C)C#CCN(CCO)C(C)C
inactive: dose: 75.0 mg/kg/injection, schedule: Q01DX001 (ip), vehicle: other 96 % of control | dose: 150.0 mg/kg/injection, schedule: Q01DX001 (ip), vehicle: other 96 % of control

C=CC[Se]c1ncnc2c1c(C#N)cn2C1OC(CO)C(O)C1O (configuration not stated)
inactive: dose: 6.25 mg/kg/injection, schedule: Q01DX009 (ip), vehicle: saline 103 % of control | [8] 107 % of control | [9] 92 % of control

CN(C)C(=O)C(=O)c1cn(C)c2ccccc12
inactive: dose: 50.0 mg/kg/injection, schedule: Q01DX001 (ip), vehicle: carboxymethylcellulose (CMC) 95 % of control | dose: 100.0 mg/kg/injection, schedule: Q01DX001 (ip), vehicle: carboxymethylcellulose (CMC) 109 % of control | dose: 200.0 mg/kg/injection, schedule: Q01DX001 (ip), vehicle: carboxymethylcellulose (CMC) 93 % of control | dose: 400.0 mg/kg/injection, schedule: Q01DX001 (ip), vehicle: carboxymethylcellulose (CMC) 101 % of control

CN1CCC=C(CN2c3ccccc3Sc3ccc(Cl)cc32)C1
inactive: [8] 119 % of control | [10] 101 % of control | dose: 16.5 mg/kg/injection, schedule: Q04DX003 (ip), vehicle: saline 98 % of control | [9] 113 % of control | [11] 105 % of control | dose: 37.5 mg/kg/injection, schedule: Q04DX003 (ip), vehicle: saline 105 % of control | dose: 50.0 mg/kg/injection, schedule: Q01DX009 (ip), vehicle: saline 114 % of control | dose: 50.0 mg/kg/injection, schedule: Q04DX003 (ip), vehicle: saline 110 % of control

COC1(c2ccc(Cl)cc2)OC(=O)C(c2ccccc2)=C1Cc1ccccc1 (configuration not stated)
inactive: dose: 12.5 mg/kg/injection, schedule: Q01DX009 (ip), vehicle: saline with Tween-80 93 % of control | dose: 25.0 mg/kg/injection, schedule: Q01DX009 (ip), vehicle: saline with Tween-80 89 % of control | dose: 50.0 mg/kg/injection, schedule: Q01DX009 (ip), vehicle: saline with Tween-80 100 % of control

O=S1Oc2ccccc2O1
inactive: [12] 117 % of control | [13] 103 % of control

COc1ccc(NP2(=O)OCC(C)([N+](=O)[O-])CO2)cc1 (configuration not stated)
inactive: [14] 98 % of control | [1] 102 % of control | [2] 98 % of control | [3] 96 % of control

CCn1c(/C=N/NC(N)=S)cc2ccccc21
inactive: dose: 50.0 mg/kg/injection, schedule: Q01DX001 (ip), vehicle: other 104 % of control | dose: 100.0 mg/kg/injection, schedule: Q01DX001 (ip), vehicle: other 109 % of control | dose: 200.0 mg/kg/injection, schedule: Q01DX001 (ip), vehicle: other 104 % of control | dose: 400.0 mg/kg/injection, schedule: Q01DX001 (ip), vehicle: other 104 % of control

Oc1ccc(-c2ccc(O)c(O)c2)cc1O
inactive: dose: 75.0 mg/kg/injection, schedule: Q01DX001 (ip), vehicle: carboxymethylcellulose (CMC) 100 % of control | dose: 150.0 mg/kg/injection, schedule: Q01DX001 (ip), vehicle: carboxymethylcellulose (CMC) 95 % of control

O=[N+]([O-])c1ccc(Oc2cc(Cl)c(Cl)cc2Cl)c(Cl)c1
inactive: [12] 87 % of control | [13] 90 % of control | dose: 300.0 mg/kg/injection, schedule: Q01DX001 (ip), vehicle: saline 87 % of control

Cc1c2cnccc2c(C)c2c1c1ccccc1n2CCCN
inactive: dose: 6.25 mg/kg/injection, schedule: Q04DX003 (ip), vehicle: saline 97 % of control | [10] 97 % of control | dose: 25.0 mg/kg/injection, schedule: Q01DX001 (oral), vehicle: saline 96 % of control | [11] 89 % of control | dose: 50.0 mg/kg/injection, schedule: Q01DX001 (oral), vehicle: saline 100 % of control | dose: 75.0 mg/kg/injection, schedule: Q01DX001 (oral), vehicle: saline 105 % of control | dose: 100.0 mg/kg/injection, schedule: Q01DX001 (oral), vehicle: saline 86 % of control | dose: 200.0 mg/kg/injection, schedule: Q01DX001 (oral), vehicle: saline 96 % of control

CC(=O)OCC(C(=O)O)(c1ccccc1)c1ccccc1
inactive: dose: 55.0 mg/kg/injection, schedule: Q01DX Z (ip), vehicle: methylcellulose (MC) 94 % of control | dose: 83.0 mg/kg/injection, schedule: Q01DX Z (ip), vehicle: methylcellulose (MC) 98 % of control | dose: 125.0 mg/kg/injection, schedule: Q01DX Z (ip), vehicle: methylcellulose (MC) 93 % of control

O=[N+]([O-])c1cccc([I+]c2ccccc2)c1
inactive: [14] 91 % of control | [1] 95 % of control | [2] 101 % of control

CC(=O)Nc1c([N+](=O)[O-])ccc(Cl)c1Cl
inactive: [4] 98 % of control | [5] 97 % of control

O/N=C1\CCn2cccc21
inactive: dose: 100.0 mg/kg/injection, schedule: Q04DX003 (ip), vehicle: saline with Tween-80 91 % of control | dose: 200.0 mg/kg/injection, schedule: Q04DX003 (ip), vehicle: saline with Tween-80 91 % of control | dose: 400.0 mg/kg/injection, schedule: Q04DX003 (ip), vehicle: saline with Tween-80 87 % of control

CC1=N/C(=C/c2ccc([N+](=O)[O-])s2)C(=O)O1
inactive: [6] 112 % of control | [7] 97 % of control | [15] 95 % of control and 115 % of control | [16] 98 % of control

NC(CSS(=O)(=O)O)=NC1CC1
inactive: [7] 94 % of control | [15] 91 % of control | [16] 109 % of control

CC1(C)CC(=O)C2=C(C1)Nc1ccc(Cl)cc1NC2c1cccc([N+](=O)[O-])c1 (configuration not stated)
inactive: [7] 98 % of control | [15] 105 % of control | [16] 102 % of control
